From patent US20240124467A1, “FUSED PYRIMIDINE COMPOUNDS AS INHIBITORS OF MENIN-MLL INTERACTION” (Biomea Fusion, Inc., priority 2020, published 2024)
Like-named read-outs stand apart in the source and are kept apart here.

Key:
Assay type in all cases: cell-based
K-562 = assay: Cell proliferation inhibition (CellTiter-Glo), K-562 cells; details: Homo sapiens, K-562 (BCR-ABL)
Method: (§1) The present example evaluates the ability of compounds described herein, inhibitors of Menin/MLL interaction, to inhibit cell proliferation. The proliferation inhibitory effect was investigated in human MLL-leukemia cells selected on the bases of MLL fusion proteins and listed in the table below.
(§2) ATP is present in all metabolically active cells and is considered as a marker for cell viability and proliferation. The metabolic cell activity was determined using the CellTiter-Glo kit from Promega, an ATP monitoring system based on the production of luminescence by the reaction of ATP with added UltraGlo® recombinant luciferase (Kawano et al., 2016, PLOS One, 8:11(7):e0158888), according to the supplier's experimental recommendations. The assay is based on a 96 well plate format. All experiments were carried out in duplicate in one test occasion.
(§3) Test items were dissolved at 20 mM in DMSO with purity ≥99.9% (Sigma catalog no. D8418) and stored at −20° C. Cells were maintained in RPMI-1640 medium (Invitrogen catalog no. 618700) supplemented with 10% of Heat Inactivated FBS (Invitrogen catalog no. 10500) and 1% Pen-Strep (Invitrogen catalog no. 15140) and cultured at 37° C. in a humidified incubator with 5% CO2. Cell lines were grown in suspension and the cell density was maintained in a range of 5×10^4-1×10^6 viable cells/ml where possible. Cells were pelleted at 130 g×5 min.
(§4) Serial dilutions of compounds 1 to 3 in DMSO 100% were prepared starting from a 2.5 mM solutions (prepared by diluting 1:8 the 20 mM stock solution) to generate a 7 point concentration response curve (CRC). Seven concentrations of test compounds (e.g., 5.00×10^−6-1.67×10^−6-5.56×10^−7-1.85×10^−7-6.17×10^−8-2.06×10^−8-6.86×10^−9 M) were assessed in duplicate in an individual test occasion in parallel in the selected cell lines. KO-539 was used as a reference compound and tested in duplicate at seven similar concentrations. 100% of proliferation was represented by the untreated cells (0.2% DMSO).
(§5) Cell proliferation inhibition was monitored at both the following end points: Day 4 (T4) and Day 7 (T7). For the appropriate cell density during the exponential cell growth and re-supply with fresh compound solution at T4, cells were diluted (1:4) with fresh medium containing the compound concentration (1×).
(§6) For each plate to test, one 0.4 μL copy plate and four 0.3 μL copy plates were stamped into 96-well plates not treated for cell adhesion (Sarstedt—cat. no. 82.1581.001) by acoustic liquid handling (Echo) at a concentration which was 500 fold the final assay concentration. Stamped plates were stored at −20° C.
(§7) On Day 0, the day of the experiment cell line suspensions were counted by Cell Viability Analyser, Vi-CELL (Beckman Coulter AY15292), and diluted with fresh medium to obtain the following cell densities: K-562 500 c/ml, MOLM-13 1,000 c/ml, MV4-11 10,000 c/ml, OCI-AML-3 500 c/ml, and U-937 500-1,000 c/ml. 200 μL/well and 150 μL/well of cell suspension were added into the 0.4 μL/well and 0.3 μL/well compound plates, respectively. Cell plate containing 200 μL/well suspension were incubated at 37° C. in a humidified incubator with 5% CO2. From each well of the 150 μL/well cell assay plate, 100 μL were harvested and transferred into a 96-well Optiplate (Perkin Elmer, cat. no. 6005290). Cell viability was measured as described below.
(§8) On Day 4, 150p/well of fresh medium was added into a new 0.3 μL/well copy compound plates. From each well of the 200 μL/well cell assay plate, 100 μL was sampled for the cell viability measurement as described below. 50p was harvested and added to the 150p/well compound plate prepared as described in the first point to dilute 1:4 the cell suspension. The cell assay plate diluted and containing 200 μL/well suspension was incubated at 37° C. in a humidified incubator with 5% CO2.
(§9) On Day 4, 150p/well of fresh medium was added into a new 0.3 μL/well copy compound plates. […]

MV4-11 = assay: Cell proliferation inhibition (CellTiter-Glo), MV4-11 cells; details: Homo sapiens, MV4-11 (MLL-AF4)
Method: as §1, §2, §3, §4, §5, §6, §7, §8, §9

MOLM-13 = assay: Cell proliferation inhibition (CellTiter-Glo), MOLM-13 cells; details: Homo sapiens, MOLM-13 (MLL-AF9)
Method: as §1, §2, §3, §4, §5, §6, §7, §8, §9

[1] = K562, 96 h, Day 4, read-out: K-562 IC50 μM (Day 4)
[2] = 96 h, Day 4, read-out: MV-4:11 IC50 μM (Day 4)*
[3] = 96 h, Day 4, read-out: MOLM-13 Day IC50 μM (Day 4)*
[4] = K562, 168 h, Day 7, read-out: K-562 IC50 μM (Day 7)*
[5] = 168 h, Day 7, read-out: MV-4:11 IC50 μM (Day 7)*
[6] = 168 h, Day 7, read-out: MOLM-13 Day IC50 μM (Day 7)*

Row | SMILES | IC50 (K-562; [1]) [µM] | IC50 (MV4-11; [2]) [µM] | IC50 (MOLM-13; [3]) [µM] | IC50 (K-562; [4]) [µM] | IC50 (MV4-11; [5]) [µM] | IC50 (MOLM-13; [6]) [µM]
1 | C=CC(=O)N[C@@H]1CCCN(c2cccc([C@@H](C)S(=O)(=O)Nc3ccc(-c4cc5c(N6CCOCC6)ncnc5[nH]4)cc3)c2)C1 [Compound B0700-546] | > 10 | 1.75 | 3.59 |  |  | 
2 | C=CC(=O)N[C@@H]1CCCN(c2cccc([C@H](C)S(=O)(=O)Nc3ccc(-c4cc5c(N6CCOCC6)ncnc5[nH]4)cc3)c2)C1 [Compound B0700-547] | > 10 | 0.418 | 1.39 |  |  | 
3 | C=CC(=O)N[C@@H]1CCCN(Cc2ccnc(C(=O)Nc3ccc(-c4cc5c(N6CCOCC6)ncnc5[nH]4)cc3F)c2)C1 [Compound B0700-549] | > 10 | 0.796 | 0.475 |  |  | 
4 | C/C=C/S(=O)(=O)N[C@@H]1CCCN(Cc2ccnc(C(=O)Nc3ccc(-c4cc5c(N6CCOCC6)ncnc5[nH]4)cc3)c2)C1 [Compound B0700-550] | > 10 | 0.212 | 0.276 |  |  | 
5 | C=CC(=O)N[C@@H]1CCCN(c2cccc(C(C)S(=O)(=O)Nc3ccc(-c4cc5c(N6CCOCC6)ncnc5[nH]4)cc3F)c2)C1 (stereo partly drawn) [Compound B0700-559, N-((3R)-1-(3-(1-(N-(2-fluoro-4-(4-morpholino-7H-pyrrolo[2,3-d]pyrimidin-6-yl)phenyl)sulfamoyl)ethyl)phenyl)piperidin-3-yl)acrylamide] | > 10 | 1.56 | 3.91 |  |  | 
6 | C=CC(=O)N[C@@H]1CCCN(C(=O)c2ccnc(CNc3ccc(-c4cc5c(N6CCOCC6)ncnc5[nH]4)cc3)c2)C1 [Compound B0700-561, (R)—N-(1-(2-(((4-(4-morpholino-7H-pyrrolo[2,3-d]pyrimidin-6-yl)phenyl)amino)methyl)isonicotinoyl)piperidin-3-yl)acrylamide] | > 10 | 0.304 | 1.63 |  |  | 
7 | C=CC(=O)N[C@H]1CCCN(c2cccc(C(C)S(=O)(=O)Nc3ccc(-c4cc5c(N6CCOCC6)ncnc5[nH]4)cc3)c2)C1 (stereo partly drawn) [Compound B0700-565] | > 10 | 0.274 | 1.03 |  |  | 
8 | C=CC(=O)N[C@@H]1CCCN(Cc2ccnc(C(=O)Nc3ccc(-c4cc5c(N6CCC(O)CC6)ncnc5[nH]4)cc3)c2)C1 [Compound B0700-568] | > 10 | 0.419 | 0.495 | > 10 | 0.34 | 0.924
9 | C=CC(=O)N[C@@H]1CCCN(Cc2ccnc(C(=O)Nc3ccc(-c4cc5c(N6CCC(C)(O)CC6)ncnc5[nH]4)cc3)c2)C1 [Compound B0700-569] | > 10 | 0.318 | 0.492 | 9.87 | 0.37 | 1.07
10 | [2H]C1([2H])OC([2H])([2H])C([2H])([2H])N(c2ncnc3[nH]c(-c4ccc(NC(=O)c5cc(CN6CCC[C@@H](NC(=O)C=C)C6)ccn5)cc4)cc23)C1([2H])[2H] [Compound B0700-601, (R)-4-((3-acrylamidopiperidin-1-yl)methyl)-N-(4-(4-(morpholino-d8)-7H-pyrrolo[2,3-d]pyrimidin-6-yl)phenyl)picolinamide] | > 10 | 0.397 | 0.282 |  |  | 
11 | C=CC(=O)N[C@@H]1CCC[C@H](Nc2ccnc(C(=O)Nc3ccc(-c4cc5c(N6CCOCC6)ncnc5[nH]4)cc3)c2)C1 [Compound B0700-607, 4-(((1S,3R)-3-acrylamidocyclohexyl)amino)-N-(4-(4-morpholino-7H-pyrrolo[2,3-d]pyrimidin-6-yl)phenyl)picolinamide] | 2.96 | 0.398 | 0.202 | 3.47 | 0.43 | 0.349
12 | C=CC(=O)N1CCCC(N2CC[C@@H](C(=O)Nc3ccc(-c4cc5c(N6CCOCC6)ncnc5[nH]4)cc3)C2)C1 (stereo partly drawn) [Compound B0700-608, (3R)-1-(1-acryloylpiperidin-3-yl)-N-(4-(4-morpholino-7H-pyrrolo[2,3-d]pyrimidin-6-yl)phenyl)pyrrolidine-3-carboxamide] | 2.19 | 0.138 | 0.197 | 3.65 | 0.1 | 0.164
13 | C=CC(=O)N1CCC(N2CCC(S(=O)(=O)Nc3ccc(-c4cc5c(N6CCOCC6)ncnc5[nH]4)cc3)CC2)CC1 [Compound B0700-610, 1′-acryloyl-N-(4-(4-morpholino-7H-pyrrolo[2,3-d]pyrimidin-6-yl)phenyl)-[1,4′-bipiperidine]-4-sulfonamide] | > 10 | 0.487 | 0.806 | > 10 | 0.29 | 0.458
14 | C=CC(=O)N1CCCC(N2CCC(S(=O)(=O)Nc3ccc(-c4cc5c(N6CCOCC6)ncnc5[nH]4)cc3)C2)C1 (stereo not drawn) [Compound B0700-611, 1-(1-acryloylpiperidin-3-yl)-N-(4-(4-morpholino-7H-pyrrolo[2,3-d]pyrimidin-6-yl)phenyl)pyrrolidine-3-sulfonamide] | > 10 | 0.629 | 0.963 | > 10 | 0.38 | 0.834
15 | C=CC(=O)N1CCC(N2CCN(S(=O)(=O)Nc3ccc(-c4cc5c(N6CCOCC6)ncnc5[nH]4)cc3)CC2)CC1 [Compound B0700-612, 4-(1-acryloylpiperidin-4-yl)-N-(4-(4-morpholino-7H-pyrrolo[2,3-d]pyrimidin-6-yl)phenyl)piperazine-1-sulfonamide] | > 10 | 1.4 | 2.85 | > 10 | 1.14 | 2.39
16 | C=CC(=O)N1CCC(N2CCN(C(=O)Nc3ccc(-c4cc5c(N6CCOCC6)ncnc5[nH]4)cc3)CC2)CC1 [Compound B0700-613, 4-(1-acryloylpiperidin-4-yl)-N-(4-(4-morpholino-7H-pyrrolo[2,3-d]pyrimidin-6-yl)phenyl)piperazine-1-carboxamide] | 6.04 | 0.495 | 0.632 | 11.2 | 0.47 | 0.477
17 | C=CC(=O)N[C@@H]1CCCN(Cc2ccnc(C(=O)Nc3ccc(-c4cc5c(N6CCOCC6)nccc5[nH]4)cc3)c2)C1 [Compound B0700-614, (R)-4-((3-acrylamidopiperidin-1-yl)methyl)-N-(4-(4-morpholino-1H-pyrrolo[3,2-c]pyridin-2-yl)phenyl)picolinamide] | 0.554 | 0.696 | 0.923 | 0.186 | 1.03 | 0.523
18 | C=CC(=O)N1CCC(Nc2ccnc(C(=O)Nc3ccc(-c4cc5c(N6CCOCC6)ncnc5[nH]4)cc3)c2)CC1 [Compound B0700-616, 4-((1-acryloylpiperidin-4-yl)amino)-N-(4-(4-morpholino-7H-pyrrolo[2,3-d]pyrimidin-6-yl)phenyl)picolinamide] | 0.744 | 0.218 | 0.154 | 0.636 | 0.17 | 0.157
